In patent publication US20190183908A1 (priority 2016, published 2019):
Entries after “also recorded” stand apart in the source; their conditions may differ.

Key:
iNOS [1] = system: iNOS; set-up: species or system mice; conditions: mouse, in vivo
UV irradiated mice = system: UV irradiated mice; set-up: species or system C57BL/6 mice; conditions: mouse, in vivo
M2:M1 macrophage ratio = system: M2:M1 macrophage ratio; set-up: species or system mice; conditions: mouse, in vivo
Arginase1 = system: Arginase1; set-up: species or system mice; conditions: mouse, in vivo
TNF-α [2] = system: TNF-α; set-up: species or system mice; conditions: mouse, in vivo
MMP9 = system: MMP9; set-up: species or system mice; conditions: mouse, in vivo
[3] = system: LC3 in CD206+ macrophages; set-up: species or system mice; conditions: mouse, in vivo
UV induced apoptosis = conditions: mouse, in vivo
[4] = system: LC3 in F4/80+ macrophages; set-up: species or system mice; conditions: mouse, in vivo
CD206+ M2 macrophages = system: CD206+ M2 macrophages; set-up: species or system mice; conditions: mouse, in vivo
[5] = system: nitrogen mustard exposed mice; conditions: mouse, in vivo, ip; cited from earlier work
TNF-α [6] = system: TNF-α; set-up: species or system human; conditions: in vivo, po
[7] = system: LC3 in CD163+ macrophages; set-up: species or system human; conditions: in vivo, po
Valchlor-exposed skin [8] = system: Valchlor-exposed skin; set-up: species or system human; conditions: in vivo
arginase-1 = system: arginase-1; set-up: species or system human; conditions: in vivo
[9] = system: UVR-irradiated skin of healthy adults; set-up: species or system human; conditions: in vivo
Valchlor-exposed skin [10] = assay type: in vivo, human
[11] = system: UVR-irradiated skin of healthy adults; set-up: species or system human; conditions: in vivo; remark: listed apart in the source
TNF-α [12] = system: TNF-α; set-up: species or system human; conditions: in vivo, po; remark: listed apart in the source
[13] = system: UVR-irradiated skin of healthy adults; assay type: in vivo, human; conditions: N=4
IL-6 = system: IL-6; set-up: species or system human; conditions: in vivo, po
iNOS [14] = system: iNOS; set-up: species or system human; conditions: in vivo, po
Valchlor-exposed skin [15] = conditions: human, in vivo
COX-2 = system: COX-2; set-up: species or system human; conditions: in vivo, po

## 25(OH)D
iNOS [1]
  Gene expression of iNOS (NOS2): significantly suppressed; also recorded: suppresses
UV irradiated mice; ip
  Skin inflammation, wound progression and histological architecture: prevented excessive cutaneous damage; also recorded: delayed skin inflammation, arrested skin wound progression and accelerated wound repair; also recorded: protects from UV induced necrosis, dyskeratosis and vacuolation of the basal layer
M2:M1 macrophage ratio
  M2:M1 ratio: significantly altered
  M2:M1 ratio in presence or absence of VD: comparable
Arginase1
  arg1 staining in CD206+ cells: selectively stain for arg1 in CD206+ cells
TNF-α [2]
  Gene expression of TNF (TNF-α): sustained inhibition; also recorded: significantly suppressed; also recorded: suppresses
MMP9
  Gene expression of MMP9: sustained inhibition; also recorded: significantly suppressed; also recorded: suppresses
[3]
  LC3+CD206+ cells in the dermis: significantly increased number of cells
UV induced apoptosis
  UV mediated apoptotic cell death (TUNEL+ cells): significantly diminished
[4]
  Elevation of macrophage-specific autophagy (LC3 punctae) compared to UV induced autophagy: 5 fold
CD206+ M2 macrophages
  M2 macrophages (CD206+) relative to M1: more M2 cells co-localizing with LC3; also recorded: expands the M2 compared to M1
[5]
  Acute skin and systemic inflammation, tissue damage and mortality: sufficient to prevent acute skin and systemic inflammation and rescue mice from extensive tissue damage and mortality

## Cn1cnc(N)c2ncnc1-2 [3-MA, 3-methyladenine]
UV irradiated mice
  UV-induced inflammation / VD mediated protection under blockade of autophagy: exacerbated UV-induced inflammation; also recorded: reversed VD mediated protection from inflammation
Arginase1
  arg1 expression in CD206+ cells under inhibition of autophagy: diminished arg1 expression
TNF-α [2]
  TNF-α under blockade of autophagy: increasing
MMP9
  MMP9 under blockade of autophagy: increasing
[3]
  LC3 expression in skin under inhibition of autophagy: abolished LC3 expression
[4]
  UV induced and VD induced autophagy: inhibited
CD206+ M2 macrophages
  M2 macrophages / cellular profile under blockade of autophagy: depleted functional M2 macrophages; also recorded: recapitulates cellular profile observed with UV while quenching LC3 expression

## C=C1CC[C@H](O)C/C1=C/C=C1\CCC[C@]2(C)[C@@H]([C@H](C)CCCC(C)C)CC[C@@H]12 [vitamin D3, cholecalciferol]
TNF-α [6]
  Skin expression of TNF-α compared to placebo: reduced expression; also recorded: lower
[7]
  LC3 co-localized with CD163+ macrophages in human skin: upregulates cells that co-localize LC and CD163; also recorded: enhanced LC3
Valchlor-exposed skin [8]
  Skin thickness (arm 2 − arm 1) compared to placebo: trend in decreasing thickness; also recorded: reduction in skin thickness
arginase-1
  Arginase-1 protein expression localized to CD163+ macrophages: increased expression
[9]
  Skin thickness after irradiation with higher doses: trend for decreased skin thickness
Valchlor-exposed skin [10]; in vivo, po
  Reduction in skin vesication on histology: 50%
Valchlor-exposed skin [10]; n=2
  Vesication by histology: 0%
[11]
  Histologic structural damage (epidermal vesiculation, edema formation): improved
TNF-α [12]
  Reduction in TNF-α: 66%
[13]
  Erythema Δa*24 hr, Mean (95% CI): 2.0 (−2.1.6.1)
IL-6
  Reduction in IL-6: 112%
iNOS [14]
  Skin expression of iNOS compared to placebo: reduced expression; also recorded: lower
Valchlor-exposed skin [15]
  Net skin symptom Irritation, Day 0: 1.0
  Net skin symptom Irritation, Day 1: 0.5
  Net skin symptom Irritation, Day 2: 1.1
  Net skin symptom Irritation, Day 3: 0.8
  Net skin symptom Irritation, Day 4: 0.5
  Net skin symptom Irritation, Day 5: 0.1
  Net skin symptom Irritation, Day 6: −0.2
  Net skin symptom Irritation, Slope: −0.1202 ± 0.05
  Net skin symptom Warmth, Day 0: 1.0
  Net skin symptom Warmth, Day 1: 0.5
  Net skin symptom Warmth, Day 2: −0.2
  Net skin symptom Warmth, Day 3: 0.0
  Net skin symptom Warmth, Day 4: −1.0
  Net skin symptom Warmth, Day 5: 0.3
  Net skin symptom Warmth, Day 6: −0.3
  Net skin symptom Warmth, Slope: −0.1296 + 0.083
  Patient reported skin symptoms (warmth, irritation): demonstrable reduction; also recorded: decreased
  Skin pain, burning sensation, and itch: no observable difference
COX-2
  Reduction in COX-2: 80%
